Drawing on patent US10138260B2, “Compounds of phosphinanes and azaphosphinanes, a process for their preparation and pharmaceutical compositions containing them” (LES LABORATOIRES SERVIER, priority 2016, dated 2018), this text covers inhibition for 23 compounds.

The assay concerns the target T1, TAFIa (Homo sapiens, UniProt Q96IY4).
T1 sequence (Q96IY4 115-423): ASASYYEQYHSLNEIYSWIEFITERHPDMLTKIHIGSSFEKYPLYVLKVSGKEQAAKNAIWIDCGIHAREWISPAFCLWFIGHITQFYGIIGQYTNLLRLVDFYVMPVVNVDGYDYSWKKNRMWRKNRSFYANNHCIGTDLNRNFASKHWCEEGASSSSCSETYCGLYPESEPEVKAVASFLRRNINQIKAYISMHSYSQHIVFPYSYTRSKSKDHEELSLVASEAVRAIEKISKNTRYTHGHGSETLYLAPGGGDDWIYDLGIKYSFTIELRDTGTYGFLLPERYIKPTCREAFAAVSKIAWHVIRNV
As to the kind of experiment: Inhibition of TAFIa (hippuryl-Arg test). It counts as biochemical. Conditions: TAFIa 2 nM, hippuryl-arginine 5 mM, 45 minutes, relative to control containing the carrier; for inhibition at 0.01 µM: compound at 10 nM; for inhibition at 0.02 µM: compound at 20 nM. On the procedure:
Human TAFI (4 nM) is incubated with human thrombin (10 nM) and human thrombomodulin (5 nM) in the presence of calcium (10 mM). After incubation for 20 minutes, the activation reaction is stopped by addition of PPACK (1 μM final), an irreversible thrombin inhibitor.
The reactions take place in Hepes buffer (25 mM Hepes, 137 mM NaCl, 3.5 mM KCl)+0.1% bovine albumin, pH 7.4 at 28° C. and with stirring.
The test compound is added to the solution of TAFIa (2 nM) and incubated for 45 minutes in the presence of hippuryl-arginine (5 mM). The reaction is stopped by addition of hydrochloric acid (1M) neutralised subsequently with sodium hydroxide (1M), and then the mixture is buffered with disodium hydroxyphosphate (1M pH 7.4). […] The reaction mixture is stirred (vortex) and then centrifuged. The supernatant is transferred to a 96-well microplate, and the absorbance is measured using a spectrophotometer at 405 nm (Spectramax plus, Molecular Devices).
The OD value of a well containing the reagents without TAFI is subtracted from all the OD values measured. The percentage inhibition of TAFIa at a given concentration of the test compound is determined by means of the following formula: % inhibition=100−[(OD compound×100)/OD carrier]
The compounds are evaluated at 10 nM and 20 nM under the experimental conditions described above and the results are expressed as the percentage inhibition relative to a control containing the carrier in the absence of compound.

The term inhibition denotes the relative decrease from the control value, in per cent. Low readings indicate little suppression, high ones strong suppression. Compound `COc1cc(-c2cc(F)ccc2CN2CCP(=O)(O)[C@](CCCCN)(C(=O)O)C2)ccc1F` [Example 201, (3S)-3-(4-AMINOBUTYL)-1-[[4-FLUORO-2-(4-FLUORO-3-METHOXYPHENYL)-PHENYL]METHYL]-4-HYDROXY-4-OXO-1,4-AZAPHOSPHINANE-3-CARBOXYLIC ACID] showed an inhibition at 0.01 µM of 69% and an inhibition at 0.02 µM of 84%.

For the compound `NCCCC[C@@]1(C(=O)O)CN(Cc2ccc(F)cc2-c2cncnc2)CCP1(=O)O` [Example 234, (3S)-3-(4-AMINOBUTYL)-1-[(4-FLUORO-2-PYRIMIDIN-5-YLPHENYL)METHYL]-4-HYDROXY-4-OXO-1,4-AZAPHOSPHINANE-3-CARBOXYLIC ACID], 0.01 µM produced 68% inhibition and the inhibition at 0.02 µM turned out to be 79%.

Compound `NCCCC[C@@]1(C(=O)O)CN(Cc2ccccc2-c2cccc(Cl)c2)CCP1(=O)O` [Example 194, (3S)-3-(4-AMINOBUTYL)-1-[[2-(3-CHLOROPHENYL)PHENYL]METHYL]-4-HYDROXY-4-OXO-1,4-AZAPHOSPHINANE-3-CARBOXYLIC ACID] registered an inhibition at 0.01 µM of 64% and an inhibition at 0.02 µM of 80%.

For `Cc1ncc(-c2cc(O)ccc2CN2CCP(=O)(O)[C@](CCCCN)(C(=O)O)C2)n1C` [Example 249, (3S)-3-(4-AMINOBUTYL)-1-[[2-(2,3-DIMETHYLIMIDAZOL-4-YL)-4-HYDROXYPHENYL]METHYL]-4-HYDROXY-4-OXO-1,4-AZAPHOSPHINANE-3-CARBOXYLIC ACID], the inhibition at 0.01 µM amounted to 88% and at 0.02 µM the inhibition was 94%.

`Cc1ncc(-c2ccccc2CN2CCP(=O)(O)[C@](CCCCN)(C(=O)O)C2)n1C` [Example 250, (3S)-3-(4-AMINOBUTYL)-1-[[2-(2,3-DIMETHYLIMIDAZOL-4-YL)PHENYL]-METHYL]-4-HYDROXY-4-OXO-1,4-AZAPHOSPHINANE-3-CARBOXYLIC ACID] registered an inhibition at 0.01 µM of 88% and an inhibition at 0.02 µM of 97%.

Regarding `Cn1cncc1-c1cc(F)ccc1CN1CCP(=O)(O)[C@](CCCCN)(C(=O)O)C1` [Example 217, (3S)-3-(4-AMINOBUTYL)-1-[4-FLUORO-2-(1-METHYL-1H-IMIDAZOL-5-YL)BENZYL]-4-HYDROXY-4-OXO-1,4-AZAPHOSPHINANE-3-CARBOXYLIC ACID], the inhibition at 0.01 µM was determined as 66% and the inhibition at 0.02 µM turned out to be 83%.

`NCCCC[C@@]1(C(=O)O)CN(Cc2ccc(O)cc2-c2ccncc2)CCP1(=O)O` [Example 225, (3S)-3-(4-AMINOBUTYL)-4-HYDROXY-1-[(4-HYDROXY-2-PYRIDIN-4-YLPHENYL)METHYL]-4-OXO-1,4-AZAPHOSPHINANE-3-CARBOXYLIC ACID] had an inhibition at 0.01 µM of 76% and an inhibition at 0.02 µM of 85%.

In turn, `NCCCCC1(C(=O)O)CN(Cc2ccccc2-c2nccs2)CCP1(=O)O` (stereo not shown) [Example 108, 3-(4-AMINOBUTYL)-4-HYDROXY-4-OXO-1-[[2-(1,3-THIAZOL-2-YL)PHENYL]-METHYL]-1,4-AZAPHOSPHINANE-3-CARBOXYLIC ACID] registered an inhibition at 0.01 µM of 25% and an inhibition at 0.02 µM of 29%.

Take `Cn1nccc1-c1ccccc1CN1CCP(=O)(O)[C@](CCCCN)(C(=O)O)C1` [Example 235, (3S)-3-(4-AMINOBUTYL)-4-HYDROXY-1-[[2-(2-METHYLPYRAZOL-3-YL)PHENYL]METHYL]-4-OXO-1,4-AZAPHOSPHINANE-3-CARBOXYLIC ACID]: the inhibition at 0.01 µM worked out at 60% and the inhibition at 0.02 µM is 77%.

For `CC(C)c1ccccc1CN1CCP(=O)(O)C(CCCCN)(C(=O)O)C1` (stereo not shown) [Example 174, 3-(4-AMINOBUTYL)-4-HYDROXY-4-OXO-1-[(2-PROPAN-2-YLPHENYL)METHYL]-1,4-AZAPHOSPHINANE-3-CARBOXYLIC ACID], the inhibition at 0.01 µM turned out to be 43% and 0.02 µM produced 51% inhibition.

The compound `NCCCC[C@@]1(C(=O)O)CN(Cc2ccc(Cl)cc2-c2ccc(F)cc2)CCP1(=O)O` [Example 210, (3S)-3-(4-AMINOBUTYL)-1-[[4-CHLORO-2-(4-FLUOROPHENYL)PHENYL]METHYL]-4-HYDROXY-4-OXO-1,4-AZAPHOSPHINANE-3-CARBOXYLIC ACID] gave an inhibition at 0.01 µM of 71% and an inhibition at 0.02 µM of 79%.

In turn, `Cc1ncc(-c2cc(F)ccc2CN2CCP(=O)(O)[C@](CCCCN)(C(=O)O)C2)n1C` [Example 219, (3S)-3-(4-AMINOBUTYL)-1-[2-(1,2-DIMETHYL-1H-IMIDAZOL-5-YL)-4-FLUOROBENZYL]-4-HYDROXY-4-OXO-1,4-AZAPHOSPHINANE-3-CARBOXYLIC ACID] returned an inhibition at 0.01 µM of 92% and an inhibition at 0.02 µM of 98%.

Regarding `NCCCC[C@@]1(C(=O)O)CN(Cc2ccc(F)cc2-c2ccccc2Cl)CCP1(=O)O` [Example 206, (3S)-3-(4-AMINOBUTYL)-1-[[2-(2-CHLOROPHENYL)-4-FLUOROPHENYL]METHYL]-4-HYDROXY-4-OXO-1,4-AZAPHOSPHINANE-3-CARBOXYLIC ACID], testing at 0.01 µM gave an inhibition of 67% and testing at 0.02 µM gave an inhibition of 80%.

Compound `NCCCCC1(C(=O)O)CN(Cc2ccccc2-c2ccc3ccccc3c2)CCP1(=O)O` (stereo not shown) [Example 50, 3-(4-AMINOBUTYL)-4-HYDROXY-1-[(2-NAPHTHALEN-2-YLPHENYL)METHYL]-4-OXO-1,4-AZAPHOSPHINANE-3-CARBOXYLIC ACID] yielded an inhibition at 0.01 µM of 53% and an inhibition at 0.02 µM of 66%.

For `NCCCC[C@@]1(C(=O)O)CN(Cc2ccc(F)cc2-c2cc[nH]c(=O)c2)CCP1(=O)O` [Example 222, (3S)-3-(4-AMINOBUTYL)-1-[[4-FLUORO-2-(2-OXO-1H-PYRIDIN-4-YL)PHENYL]-METHYL]-4-HYDROXY-4-OXO-1,4-AZAPHOSPHINANE-3-CARBOXYLIC ACID], the inhibition at 0.01 µM is 73% and the inhibition at 0.02 µM stood at 85%.

In the case of `NCCCC[C@@]1(C(=O)O)CN(Cc2ccc(F)cc2-c2cccs2)CCP1(=O)O` [Example 213, (3S)-3-(4-AMINOBUTYL)-1-[(4-FLUORO-2-THIOPHEN-2-YLPHENYL)METHYL]-4-HYDROXY-4-OXO-1,4-AZAPHOSPHINANE-3-CARBOXYLIC ACID], the inhibition at 0.01 µM came out at 83% and at 0.02 µM the inhibition was 92%.

The compound `NCCCC[C@@]1(C(=O)O)CN(Cc2ccccc2-c2ccc(F)cc2)CCP1(=O)O` [Example 197, (3S)-3-(4-AMINOBUTYL)-1-[[2-(4-FLUOROPHENYL)PHENYL]METHYL]-4-HYDROXY-4-OXO-1,4-AZAPHOSPHINANE-3-CARBOXYLIC ACID] showed an inhibition at 0.01 µM of 60% and an inhibition at 0.02 µM of 78%.

Consider `Cn1nc(C(F)(F)F)cc1-c1ccccc1CN1CCP(=O)(O)[C@](CCCCN)(C(=O)O)C1` [Example 232, (3S)-3-(4-AMINOBUTYL)-4-HYDROXY-1-[[2-[2-METHYL-5-(TRIFLUOROMETHYL)-PYRAZOL-3-YL]PHENYL]METHYL]-4-OXO-1,4-AZAPHOSPHINANE-3-CARBOXYLIC ACID], for which 0.01 µM produced 80% inhibition and the inhibition at 0.02 µM turned out to be 89%.

In the case of `NCCCC[C@@]1(C(=O)O)CN(Cc2ccc(F)cc2-c2ccc(O)nc2)CCP1(=O)O` [Example 241, (3S)-3-(4-AMINOBUTYL)-1-[[4-FLUORO-2-(6-HYDROXYPYRIDIN-3-YL)PHENYL]-METHYL]-4-HYDROXY-4-OXO-1,4-AZAPHOSPHINANE-3-CARBOXYLIC ACID], the inhibition at 0.01 µM amounted to 77% and the inhibition at 0.02 µM was found to be 91%.

`NCCCCC1(C(=O)O)CN(Cc2ccc(F)cc2-c2ccc(O)cc2)CCP1(=O)O` (stereo not shown) [Example 104, 3-(4-AMINOBUTYL)-1-[[4-FLUORO-2-(4-HYDROXYPHENYL)PHENYL]METHYL]-4-HYDROXY-4-OXO-1,4-AZAPHOSPHINANE-3-CARBOXYLIC ACID]: testing at 0.01 µM gave an inhibition of 37% and the inhibition at 0.02 µM turned out to be 68%.

As to `NCCCC[C@@]1(C(=O)O)CN(Cc2ccccc2-c2cccc3ccccc23)CCP1(=O)O` [Example 199, (3S)-3-(4-AMINOBUTYL)-4-HYDROXY-1-[(2-NAPHTHALEN-1-YLPHENYL)-METHYL]-4-OXO-1,4-AZAPHOSPHINANE-3-CARBOXYLIC ACID], testing at 0.01 µM gave an inhibition of 54% and the inhibition at 0.02 µM was 73%.

`NCCCC[C@@]1(C(=O)O)CN(Cc2ccc(O)cc2-c2ccccc2)CCP1(=O)O` [Example 191, (3S)-3-(4-AMINOBUTYL)-4-HYDROXY-1-[(4-HYDROXY-2-PHENYLPHENYL)-METHYL]-4-OXO-1,4-AZAPHOSPHINANE-3-CARBOXYLIC ACID] registered an inhibition at 0.01 µM of 66% and an inhibition at 0.02 µM of 83%.

In turn, `Cc1ccc(-c2cc(O)ccc2CN2CCP(=O)(O)[C@](CCCCN)(C(=O)O)C2)cc1` [Example 223, (3S)-3-(4-AMINOBUTYL)-4-HYDROXY-1-[[4-HYDROXY-2-(4-METHYLPHENYL)-PHENYL]METHYL]-4-OXO-1,4-AZAPHOSPHINANE-3-CARBOXYLIC ACID] returned an inhibition at 0.01 µM of 71% and an inhibition at 0.02 µM of 83%.
